Source: PubChem BioAssay AID1259420 (Broad Institute, 2018)
“And” between values parts separate entries of the source, which are not always exact repeats. Equal entries are not always repeated. Inconclusive results are not listed. The source made the active and inactive calls. No rule for the calls is given here.

The compounds below were run on Toxoplasma gondii growth in host cells, no IFN-gamma (assay: T. gondii intracellular growth, IFN-gamma absent, dose response, cell-based (AID 1259420);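 also: host cells were HeLa; final incubation lasted 72 hours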).

| SMILES | AC50 |
| --- | --- |
| Cn1cccc1C(=O)N1CCC2(CC1)CN(CC1CC1)C(=O)CO2 | 36.8 µM |
| Cc1cc(C)n(C)c(=O)c1C(=O)N1CCOC(C(F)(F)F)C1 (centres undefined) | > 39 µM (inactive) |
| C[C@H](CO)N1C[C@H](C)[C@H](CN(C)C(=O)Nc2ccc(C(F)(F)F)cc2)Oc2c(NC(=O)c3ccc(-c4nccs4)cc3)cccc2C1=O | 9.48 µM |
| COc1cccc(-c2ccc3c(c2)[C@@H]2[C@@H](CCN2C(=O)c2ccccc2F)[C@H](CO)N3C)c1 | 8.81 µM and 10.2 µM |
| O=C(Nc1cccc(F)c1)N1CCCCN2[C@@H](CO)[C@H](c3ccc(C#Cc4cccnc4)cc3)[C@@H]2C1 | 3.04 µM |
| CN(C)C(=O)c1ccc(-c2ccc([C@H]3[C@@H](CO)N4C(=O)CN(C(=O)CC5CC5)C[C@@H]34)cc2)cc1 | > 39 µM (inactive) |
| COc1ccc(Cc2cnc(N)nc2N)cc1OC | 25.8 µM |
| COc1cccc(-c2ccc3c(c2)[C@@H]2[C@@H](CCN2S(=O)(=O)c2ccccc2F)[C@H](CO)N3)c1 | 10.9 µM |
| OC[C@H]1O[C@@H](n2cnc3c(NC4CCCC4)nc(Cl)nc32)[C@H](O)[C@@H]1O | > 39 µM (inactive) |
| COc1cc(CN2C[C@@H]3N[C@H](C2)C3c2ccc(-c3ccc(C#N)cc3)cc2)cc(OC)c1 (some centres undefined) | 7.99 µM |
| O=C(c1cccc(F)c1)N1CCCCN2[C@H](CO)[C@H](c3ccc(C#CC4(O)CCCC4)cc3)[C@H]2C1 | 32.1 µM |
| Cc1ccc(N(Cc2nc(-c3cccc(Cl)c3)oc2C)S(=O)(=O)c2cccs2)cc1 | 8.34 µM |
| C[C@@H]1CN([C@@H](C)CO)C(=O)Cc2cc(NC(=O)C3CCCCC3)ccc2O[C@@H]1CN(C)Cc1ccc(Cl)c(Cl)c1 | 13.9 µM |
| CC(=O)NC1=NN(C(C)=O)C(C)(c2ccccc2)S1 (centres undefined) | > 20 µM (inactive) |
| COCC1CN(C(=O)Cc2ccsc2)Cc2nccn2C1 (centres undefined) | 28.3 µM |
| N#C[C@@H]1[C@H](c2ccc(-c3cccc(F)c3)cc2)[C@H](CO)N1C(=O)NC1CCCC1 | 36 µM and 24 µM |
| CCOc1ccc(N(Cc2nc(-c3ccc(OC)cc3)oc2C)S(=O)(=O)c2ccccc2)cc1 | 7.28 µM |
| C[C@H](O[C@H]1OCCN(Cc2n[nH]c(=O)[nH]2)[C@H]1c1ccc(F)cc1)c1cc(C(F)(F)F)cc(C(F)(F)F)c1 | 21.5 µM |
| COc1ccccc1NC(=O)N1CCCCN2[C@H](CO)[C@H](c3ccc(-c4cccc(C#N)c4)cc3)[C@@H]2C1 | 33.7 µM |
| CN1CCC2(C=C(C(=O)N3CCCC3)c3ccccc32)CC1 | > 39 µM (inactive) |
| COc1ccc(-c2nc3c(s2)CN(S(=O)(=O)c2ccccc2C)CC3)cc1 | 8.96 µM |

| SMILES | AC50 |
| --- | --- |
| O=C1CC(c2ccncc2)C2(CCN(Cc3nccs3)CC2)N1 (centres undefined) | > 39 µM (inactive) |
| CCCNC(=O)N1[C@H](C#N)[C@H](c2ccc(-c3ccccc3F)cc2)[C@H]1CO | 11.3 µM |
| Cc1ccc(S(=O)(=O)N2CC[C@@H]3[C@@H](CO)Nc4ccc(-c5cccc(C(=O)N(C)C)c5)cc4[C@@H]32)cc1 | 13.8 µM |
| CCc1cnc(N2[C@H](C#N)[C@H](c3ccc(C#Cc4ccccc4F)cc3)[C@@H]2CO)s1 | 11.3 µM |
| Cc1ccccc1S(=O)(=O)N1CC[C@@H]2[C@H]1c1cc(-c3cccc(F)c3)ccc1N(C)[C@H]2CO | 10.7 µM |
| COc1cc(N2CCO[C@H]3[C@@H](Oc4ncccc4F)CC[C@H]32)ncn1 | 6.3 µM |
| COc1ccc(NC(=O)N2CCCCN3[C@H](CO)[C@@H](c4ccc(-c5ccccc5F)cc4)[C@H]3C2)cc1 | 19.7 µM |
| CO[C@@H]1[C@@H](OC(N)=O)[C@@H](O)[C@H](Oc2ccc3c(O)c(NC(=O)c4ccc(O)c(CC=C(C)C)c4)c(=O)oc3c2C)OC1(C)C | 18 µM |
| CC(C)NC(=O)N1CC[C@@H]2[C@H]1c1cc(-c3ccc(F)cc3)ccc1N(C)[C@@H]2CO | > 20 µM (inactive) |
| COc1ccccc1C(=O)Nc1ccc(-c2nc(-c3ccc(C)cc3C)co2)cc1 | 21 µM |
| O=S(=O)(c1cccc(F)c1)N1CC[C@@H]2[C@H]1c1cc(C#Cc3ccccc3F)ccc1N[C@@H]2CO | 17.3 µM |
| CCCC(Nc1nc(-c2cccnc2)nc2c1cnn2C)c1cccs1 (centres undefined) | > 39 µM (inactive) |
| COc1ccccc1S(=O)(=O)N1CC[C@@H]2[C@@H](CO)Nc3ccc(-c4ccc(C#N)cc4)cc3[C@@H]21 | 19.8 µM |
| O=C(Cc1ccccc1)N1CC[C@H]2[C@H](CO)Nc3ccc(C4=CCCCC4)cc3[C@H]21 | 13.9 µM |
| CC(C)Oc1ccc(NC(=O)c2nc3c(n2C(C)C)CCN(C(=O)c2ccccc2)C3)cc1 | 31.9 µM |
| CC(C)CC#Cc1ccc([C@H]2[C@@H](CO)N3CCCCN(C(=O)Nc4ccccc4)C[C@@H]23)cc1 | 15.5 µM |
| Cc1cccc(S(=O)(=O)N2CC[C@@H]3[C@H](CO)Nc4ccc(-c5ccccc5F)cc4[C@@H]32)c1 | 17.2 µM |
| COCCN1CCN(S(=O)(=O)c2ccccc2)Cc2cccnc21 | 31.1 µM |
| CCc1c(C)sc2c1CCN(Cc1nc(-c3cc(C)ccc3C)oc1C)C2c1ccccc1 (centres undefined) | 16.9 µM |
| Cc1cnc(N2CCC3(CCC(CC(=O)N4CC=CC4)CC3)CC2)nc1 | 22.6 µM |
| C/C=C/c1ccc([C@H]2[C@@H](CO)N3CCCCN(S(=O)(=O)c4ccc(OC)cc4)C[C@@H]23)cc1 | 32.2 µM |

| SMILES | AC50 |
| --- | --- |
| N#C[C@H]1[C@@H](c2ccc(-c3cccc(F)c3)cc2)[C@@H](CO)N1C(=O)NC1CCCC1 | > 39 µM (inactive) |
| C[C@@H]1CN([C@@H](C)CO)C(=O)c2cccc(NC(=O)NC3CCCCC3)c2O[C@@H]1CN(C)Cc1ccc(C(F)(F)F)cc1 | > 39 µM (inactive) |
| COc1cccc(CN2C[C@@H]3N[C@H](C2)C3c2ccc(-c3ccccc3C)cc2)c1 (some centres undefined) | 12.3 µM |
| CC(=O)O.CC(=O)O.[Cl][Pt+2][Cl].[NH-]C1CCCCC1.[NH2-] | 19.4 µM |
| COc1cccc(S(=O)(=O)N2CCCCN3[C@H](CO)[C@H](c4ccc(C#CC5CC5)cc4)[C@H]3C2)c1 | 16.8 µM and 17 µM |
| COCC1CN(C(=O)c2cc(C)on2)Cc2c1cnn2CC1CC1 (centres undefined) | > 39 µM (inactive) |
| O=C(NC1CCCC1)N1CC[C@H]2CN(Cc3ccc(Cl)cc3)S(=O)(=O)[C@@H]2CC1 | 28.5 µM |
| O=C(C[C@@H]1CC[C@@H]2[C@H](COC[C@@H](O)CN2S(=O)(=O)c2ccccc2)O1)NCC1CCCCC1 | 33.4 µM |
| O=S(=O)(c1ccc(-c2ccccc2)cc1)N1C[C@@H]2N[C@H](C1)C2c1ccc(-c2ccncc2)cc1 (some centres undefined) | 16.1 µM |
| CC(C)N1CCN(CC#N)C2(CCN(C(=O)c3ccc[nH]3)C2)C1=O (centres undefined) | 37.9 µM |
| COc1ccccc1NC(=O)N1CC(=O)N2[C@H](CO)[C@H](c3ccc(C#CC(C)C)cc3)[C@H]2C1 | > 39 µM (inactive) |
| Cc1cccc(OCC(=O)N2CCC3(CC2)Nc2ccc(Cl)cc2-n2cccc23)c1 | 13.7 µM |
| CCCNC(=O)N1CC(=O)N2[C@@H](CO)[C@@H](c3ccc(C#Cc4cccc(OC)c4)cc3)[C@@H]2C1 | 31.2 µM |
| OC(c1cc(C(F)(F)F)nc2c(C(F)(F)F)cccc12)C1CCCCN1 (centres undefined) | 20.4 µM |
| COc1cccc(-c2nc3c(s2)CN(S(=O)(=O)c2ccc(C)cc2)CC3)c1 | 34 µM |
| N#Cc1ccc(-c2ccc3c(c2)[C@H]2[C@H](CCN2C(=O)C2CCCCC2)[C@H](CO)N3)cc1 | 16.9 µM |
| O=C(Nc1cccc(F)c1)N1CCCCN2[C@H](CO)[C@@H](c3ccc(C#Cc4cccnc4)cc3)[C@H]2C1 | 23.6 µM |
| CN1c2ccc(-c3ccccc3)cc2[C@@H]2[C@@H](CCN2C(=O)NC2CCCCC2)[C@H]1CO | 8.76 µM |
| CCCNC(=O)c1cc(-c2cnc(NCc3ccccc3)nc2)cn1C | 15.1 µM |
| COc1ccccc1-c1ccc(C2[C@H]3CNC[C@@H]2N3S(=O)(=O)c2ccc(F)cc2)cc1 (some centres undefined) | > 20 µM (inactive) |
| Cc1sc2ncnc(NCC3CCN(c4cnn(C)c(=O)c4)C3)c2c1C (centres undefined) | 29.6 µM |

| SMILES | AC50 |
| --- | --- |
| COc1ccc(-c2ccc3c(c2)[C@H]2[C@H](CCN2C(=O)c2cccc(F)c2)[C@H](CO)N3)cc1 | 14.3 µM |
| CCCNC(=O)N1[C@H](C#N)[C@@H](c2ccc(-c3ccccc3F)cc2)[C@H]1CO | 31.9 µM |
| COc1cc([C@@H]2c3cc4c(cc3C(OC3OC5COC(C)OC5C(O)C3O)C3OCC(=O)[C@@H]32)OCO4)cc(OC)c1O (some centres undefined) | 13.7 µM |
| O=C(Nc1cccc(F)c1)N1CCCCN2[C@H](CO)[C@H](c3ccc(C#Cc4cccnc4)cc3)[C@H]2C1 | 16.4 µM |
| COc1ccccc1NC(=O)N1C[C@H](O)COC[C@@H]2O[C@H](CC(=O)N3CCC(Cc4ccccc4)CC3)CC[C@H]21 | 37.7 µM |
| CC[C@]1(O)C[C@@H]2CN(CCc3c([nH]c4ccccc34)[C@@](C(=O)OC)(c3cc4c(cc3OC)N(C)[C@H]3[C@@](O)(C(=O)OC)[C@H](OC(C)=O)[C@]5(CC)C=CCN6CC[C@]43[C@@H]65)C2)C1 | < 0.16 µM |
| C[C@@H]1CN([C@@H](C)CO)C(=O)c2cccc(NC(=O)NC3CCCCC3)c2O[C@H]1CN(C)Cc1ccc(C(F)(F)F)cc1 | > 39 µM (inactive) |
| COc1ccc(NC(=O)N2CCCCN3[C@H](CO)[C@@H](c4ccc(-c5ccccc5F)cc4)[C@@H]3C2)cc1 | 19.1 µM |
| CN1C(=O)c2cc(NC(=O)Cc3cccs3)ccc2OC[C@H]2O[C@@H](CC(=O)NCc3ccc(-c4ccccc4)cc3)CC[C@@H]21 | 20 µM and > 39 µM (inactive) |
| COc1ccccc1-c1nc(CN2CCc3c(sc4c3CCCC4)C2c2ccccc2)c(C)o1 (centres undefined) | 22.4 µM |
| CCCN1CCC[C@@H]2Cc3[nH]ncc3C[C@H]21 | > 39 µM (inactive) |
| N#Cc1cccc(-c2ccc(C3[C@@H]4CN(C(=O)Nc5ccc(C(F)(F)F)cc5)C[C@H]3N4)cc2)c1 (some centres undefined) | 14.4 µM and 14.6 µM |
| COc1ccc(-c2nc(Nc3ccc(CN4CCCCC4)cc3)c3ccccc3n2)cc1 | 18.5 µM |
| O=C(C[C@H]1CC[C@H]2[C@@H](COC[C@@H](O)CN2S(=O)(=O)c2ccccc2F)O1)N1CCC(Cc2ccccc2)CC1 | > 20 µM (inactive) |
| Cc1ccc(S(=O)(=O)N2C[C@H](O)COC[C@@H]3O[C@H](CC(=O)NCc4ccc5c(c4)OCO5)CC[C@H]32)cc1 | > 39 µM (inactive) |
| O=S(=O)(c1ccccc1)N(CC(F)(F)F)c1ccc(C(O)(C(F)(F)F)C(F)(F)F)cc1 | 14.2 µM |
| Cc1ccc2c(c1)c(Cn1cc(-c3sccc3C)nn1)nn2C | 31.1 µM and 25.4 µM |
| CN(C)C(=O)c1cccc(-c2ccc3c(c2)[C@@H]2[C@@H](CCN2C(=O)Cc2ccccc2)[C@@H](CO)N3)c1 | 21.7 µM |
| CN(C)Cc1noc2c1CN(Cc1nccn1C)CC2 | > 39 µM (inactive) |
| N#Cc1cccc(-c2ccc3c(c2)[C@@H]2[C@@H](CCN2S(=O)(=O)c2ccc(F)cc2)[C@@H](CO)N3)c1 | 14.5 µM |
| C[C@H]1CN([C@@H](C)CO)C(=O)c2cccc(NC(=O)c3ccc(-c4nccs4)cc3)c2O[C@@H]1CN(C)C(=O)Nc1ccc(C(F)(F)F)cc1 | > 42 µM (inactive) |
